Test results as given in US8097752B2, “Antiprotozoal ring-substituted phospholipids” (priority 2002, dated 2012).
Counter-ions that a name gives are not always drawn.

Legend:
[1] = test system: promastigote forms of Leishmania donovani; experiment: In vitro antileishmanial activity in promastigote cultures (MTT), L. donovani; type: cell-based, Leishmania donovani MHOM/IN/80/DD8/LEM 703; settings: promastigotes, 72 h incubation, mean ± SEM, n = 3-4 (each run in duplicate), read-out: IC50 (μM) L. donovani MON 703
Method: (§1) Determination of in Vitro Antileishmanial Activity in Promastigote Cultures.
(§2) The effect of the phospholipids according to the present invention against the promastigote forms of Leishmania donovani and Leishmania infantum was evaluated using an MTT (3-(4,5-dimethylthiazol-2yl)-2,5-diphenyltetrazolium bromide)-based enzymatic method as a marker of cell viability and was compared with that of the ether phospholipid hexadecylphosphocholine (Miltefosine). Thus, promastigotes of Leishmania infantum MHOM/TN/80/IPT1/LEM 235 and Leishmania donovani MHOM/IN/80/DD8/LEM 703, were grown in RPMI 1640 supplemented with 10% FCS, L. glutamine and antibiotics, at 26° C. All new compounds were dissolved in DMSO to a final concentration of 9.625 mM and linear 3-fold dilutions were done in the culture medium. 25 μL of promastigote culture at 5×10^5 cells/mL were cultured in a 96-well flat-bottom plate (Costar 3696), and incubated with 25 μL of different drug concentrations at 26° C. After 72 h, 10 μL of 5 mg/mL MTT in PBS (SIGMA M2128) were added and incubation was continued for 3 h. The reaction was stopped by the addition of 50 μL of 50% isopropanol, 10% SDS under gentle shacking for 30 min. Absorbance was measured at 550 nm with reference at 620 nm in a TRITURUS microplate reader.

[2] = test system: promastigote forms of Leishmania infantum; experiment: In vitro antileishmanial activity in promastigote cultures (MTT), L. infantum; type: cell-based, Leishmania infantum MHOM/TN/80/IPT1/LEM 235; settings: promastigotes, 72 h incubation, mean ± SEM, n = 3-4 (each run in duplicate), read-out: IC50 (μM) L. infantum MON 235
Method: as §1, §2

Compound | IC50 [1] [µM] | IC50 [2] [µM]
CCCCCCCCCCCCCCC1CCC(OCCOP(=O)([O-])OCC[N+](C)(C)C)CC1 (stereo not drawn) [Example 27, 1-{2-{[(4-Tetradecylcyclohexyloxy)ethyloxy]hydroxyphosphinyloxy}ethyl}-N,N,N-trimethylammonium inner salt] | 23.7 ± 4.4 | 23.3 ± 3.5
C[N+]1(CCOP(=O)([O-])OCCCCC=C2C3CC4CC(C3)CC2C4)CCCCC1 [Example 17, 1-{2-[(5-Adamantylidenepentyloxy)hydroxyphosphinyloxy]ethyl}-1-methylpiperidinium inner salt] | > 100 | > 100
CCCCCCCCCCCCCC=C1CCC(OCCOP(=O)([O-])OCC[N+](C)(C)C)CC1 (stereo not drawn) [Example 4, 1-{2-{[(4-Tetradecylidenecyclohexyloxy)ethyloxy]hydroxyphosphinyloxy}ethyl}-N,N,N-trimethylammonium inner salt] | 3.91 ± 0.21 | 5.25 ± 0.45
CCCCCCCCCCCCCC=C1CCC(OCCOP(=O)([O-])OCC[N+]2(C)CCOCC2)CC1 (stereo not drawn) [Example 6, 1-{2-{[(4-Tetradecylidenecyclohexyloxy)ethyloxy]hydroxyphosphinyloxy}ethyl}-1-methylmorpholinium inner salt] | 38.6 ± 3.2 | 15.5 ± 1.8
CCCCCCCCCCCCCCCC=C1CCC(OCCOP(=O)([O-])OCC[N+](C)(C)C)CC1 (stereo not drawn) [Example 7, 1-{2-{[(4-Hexadecylidenecyclohexyloxy)ethyloxy]hydroxyphosphinyloxy}ethyl}-N,N,N-trimethylammonium inner salt] | 45.1 ± 7.2 | 21.2 ± 2.6
CCCCCCCCCCCC=C1CCC(OCCOP(=O)([O-])OCC[N+]2(C)CCOCC2)CC1 (stereo not drawn) [Example 3, 1-{2-{[(4-Dodecylidenecyclohexyloxy)ethyloxy]hydroxyphosphinyloxy}ethyl}-1-methylmorpholinium inner salt] | 50.7 ± 3.6 | 16.5 ± 1.8
C[N+](C)(C)CCOP(=O)([O-])OCCCCCCCCCCCC1CCCCC1 [Example 28, 1-{2-[(11-Cyclohexylundecyloxy)hydroxyphosphinyloxy]ethyl}-N,N,N-trimethylammonium inner salt] | 10.3 ± 1.3 | 8.4 ± 0.8
C[N+](C)(C)CCOP(=O)([O-])OCCCCC=C1C2CC3CC(C2)CC1C3 [Example 16, 1-{2-[(5-Adamantylidenepentyloxy)hydroxyphosphinyloxy]ethyl}-N,N,N-trimethylammonium inner salt] | 4.99 ± 1.5 | > 100
CCCCCCCCCCCCCC=C1CCC(OCCOP(=O)([O-])OCC[N+]2(C)CCCCC2)CC1 (stereo not drawn) [Example 5, 1-{2-{[(4-Tetradecylidenecyclohexyloxy)ethyloxy]hydroxyphosphinyloxy}ethyl}-1-methylpiperidinium inner salt] | 29.7 ± 3.6 | 11.4 ± 2.4
C[N+](C)(C)CCOP(=O)([O-])OCCCCCCCCCCCC12CC3CC(CC(C3)C1)C2 [Example 30, 1-{2-[(11-Adamantylundecyloxy)hydroxyphosphinyloxy]ethyl}-N,N,N-trimethylammonium inner salt] | 2.88 ± 0.72 | 5.97 ± 1.06
C[N+]1(CCOP(=O)([O-])OCCCCC=C2CCCCC2)CCOCC1 [Example 12, 1-{2-[(5-Cyclohexylidenepentyloxy)hydroxyphosphinyloxy]ethyl}-1-methylmorpholinium inner salt] | > 100 | > 100
CCCCCCCCCCCCCCCC=C1CCC(OCCOP(=O)([O-])OCC[N+]2(C)CCOCC2)CC1 (stereo not drawn) [Example 9, 1-{2-{[(4-Hexadecylidenecyclohexyloxy)ethyloxy]hydroxyphosphinyloxy}ethyl}-1-methylmorpholinium inner salt] | 16.2 ± 2.29 | 3.7 ± 0.71
C[N+]1(CCOP(=O)([O-])OCCCCC=C2C3CC4CC(C3)CC2C4)CCOCC1 [Example 18, 1-{2-[(5-Adamantylidenepentyloxy)hydroxyphosphinyloxy]ethyl}-1-methylmorpholinium inner salt] | 46.9 ± 8.7 | > 100
C[N+]1(CCOP(=O)([O-])OCCCCCCCCCCC=C2CCCCC2)CCOCC1 [Example 15, 1-{2-[(11-Cyclohexylideneundecyloxy)hydroxyphosphinyloxy]ethyl}-1-methylmorpholinium inner salt] | 8.25 ± 0.25 | 22.8 ± 1.7
C[N+]1(CCOP(=O)([O-])OCCCCCCCCCCC=C2C3CC4CC(C3)CC2C4)CCCCC1 [Example 20, 1-{2-[(11-Adamantylideneundecyloxy)hydroxyphosphinyloxy]ethyl}-1-methylpiperidinium inner salt] | 5.41 ± 1.14 | 22.6 ± 3.4
C[N+](C)(C)CCOP(=O)([O-])OCCCCC=C1CCCCC1 [Example 10, 1-{2-[(5-Cyclohexylidenepentyloxy)hydroxyphosphinyloxy]ethyl}-N,N,N-trimethylammonium inner salt] | > 100 | > 100
C[N+]1(CCOP(=O)([O-])OCCCCC=C2CCCCC2)CCCCC1 [Example 11, 1-{2-[(5-Cyclohexylidenepentyloxy)hydroxyphosphinyloxy]ethyl}-1-methylpiperidinium inner salt] | > 100 | > 100
CCCCCCCCCCCCC1CCC(OCCOP(=O)([O-])OCC[N+](C)(C)C)CC1 (stereo not drawn) [Example 26, 1-{2-{[(4-Dodecylcyclohexyloxy)ethyloxy]hydroxyphosphinyloxy}ethyl}-N,N,N-trimethylammonium inner salt] | 9.49 ± 1.4 | 5.65 ± 1.93
C[N+]1(CCOP(=O)([O-])OCCCCCCCCCCC=C2C3CC4CC(C3)CC2C4)CCOCC1 [Example 21, 1-{2-[(11-Adamantylideneundecyloxy)hydroxyphosphinyloxy]ethyl}-1-methylmorpholinium inner salt] | 5.09 ± 1.86 | 6.64 ± 1.2
CCCCCCCCCCCC=C1CCC(OCCOP(=O)([O-])OCC[N+](C)(C)C)CC1 (stereo not drawn) [Example 1, 1-{2-{[(4-Dodecylidenecyclohexyloxy)ethyloxy]hydroxyphosphinyloxy}ethyl}-N,N,N-trimethylammonium inner salt] | 7.08 ± 1.2 | 3.25 ± 0.65
CCCCCCCCCCCCCCCC=C1CCC(OCCOP(=O)([O-])OCC[N+]2(C)CCCCC2)CC1 (stereo not drawn) [Example 8, 1-{2-{[(4-Hexadecylidenecyclohexyloxy)ethyloxy]hydroxyphosphinyloxy}ethyl}-1-methylpiperidinium inner salt] | 22 ± 1.99 | 6.5 ± 1.7
CCCCCCCCCCCC=C1CCC(OCCOP(=O)([O-])OCC[N+]2(C)CCCCC2)CC1 (stereo not drawn) [Example 2, 1-{2-{[(4-Dodecylidenecyclohexyloxy)ethyloxy]hydroxyphosphinyloxy}ethyl}-1-methylpiperidinium inner salt] | 22 ± 3.25 | 23.1 ± 3.6
C[N+](C)(C)CCOP(=O)([O-])OCCCCCC12CC3CC(CC(C3)C1)C2 [Example 29, 1-{2-[(5-Adamantylpentyloxy)hydroxyphosphinyloxy]ethyl}-N,N,N-trimethylammonium inner salt] | 4.02 ± 2.3 | > 100
C[N+]1(CCOP(=O)([O-])OCCCCCCCCCCC=C2CCCCC2)CCCCC1 [Example 14, 1-{2-[(11-Cyclohexylideneundecyloxy)hydroxyphosphinyloxy]ethyl}-1-methylpiperidinium inner salt] | 8.7 ± 1 | 47.6 ± 7.33
